According to article PMC6143625, “A high throughput screen for next-generation leads targeting malaria parasite transmission” (Nature Communications, 2018):
Like-named read-outs stand apart in the source and are kept apart here.

How the values were obtained:
HepG2 human cells = system: HepG2 human cells; design: method as in http://dx.doi.org/10.6019/CHEMBL3507680; conditions: ref http://dx.doi.org/10.6019/CHEMBL3507680; cited from earlier work
[1] = system: P. berghei-ANKA-GFP-Luc-SMCON sporozoites in HepG2-A16-CD81EGFP cells; assay: P. berghei liver stage assay (luciferase sporozoite HepG2 invasion); format: cell-based; conditions: Plasmodium berghei, 48h incubation, read-out: Pb Liver invasion assay IC50
Description: Compound inhibition of P. berghei sporozoite liver infection was assessed in a high-throughput luciferase assay. 1536-well plates (789173-F, Greiner Bio-One) were pre-seeded with 5 µl HepG2-A16-CD81^EGFP cells grown in DMEM (11965–092, Invitrogen) containing 10% FBS (35–011-CV, Corning) and 1× Pen Strep Glutamine (10378–016, Invitrogen). Then, 50 nl of compound in DMSO was dispensed in 12-point serial dilution dose-response format (50 µM to 2.82 × 10^−4 µM), and incubated overnight.A. stephensi mosquitoes infected with P. berghei-ANKA-GFP-Luc-SMCON (Pb-Luc)[41] sporozoites bearing the antifolate-resistance-conferring Toxoplasma gondii dihydrofolate reductase-thymidylate synthase selectable marker, pyR2. After dissection, ~1000 sporozoites in 5 µl screening media (DMEM, 11965–092, Invitrogen; 5% FBS, 35–011-CV, Corning; 5x Pen Strep Glutamine, 10378–016, Invitrogen) were added per well and incubated for 48 h (37 °C, 5% CO2). Bioluminescence was measured using an EnVision microplate reader (Perkin Elmer), following the addition of 2 µl per well of Bright-Glo™ (Promega). Compound toxicity against HepG2 cells was determined in parallel by measuring cellular ATP levels reported by luciferase activity. Methods were similar to the P. berghei liver stage assay, except for the addition of CellTiter-Glo® (Promega) as a detection reagent. DMSO (0.5%) was used as a negative control in both assays, with Atovaquone (5 µM) and Puromycin (10 µM) acting as positive controls in the P. berghei and toxicity assays, respectively.

[2] = system: P. falciparum male gamete formation; assay: Pf DGFA add-in format, male readout; format: cell-based, Plasmodium falciparum; conditions: Plasmodium falciparum; 0h preincubation/add-in
Description: (§1) In profiling mode, the Pf DGFA was performed in 96-well plates[23] in wash-out and add-in formats to aid manual manipulation steps. In the wash-out format, gametocytes were incubated for 24 h with test compounds in round-bottomed 96 well plates and then culture medium replaced three times over 6 h, to remove as much of the compound as possible from the well. […] In add-in format, gametocytes were added directly to flat-bottomed 96-well plates containing test compounds, ookinete medium and anti-Pfs25.

[3] = system: P. falciparum stage V male gametocytes (male gamete formation); assay: P. falciparum dual gamete formation assay (Pf DGFA), male readout (exflagellation), 48 h carry-over format; format: cell-based, Plasmodium falciparum NF54; conditions: Plasmodium falciparum, 24h preincubation/carry-over
[4] = system: P. falciparum female gamete formation; assay: Pf DGFA add-in format, female readout; format: cell-based; conditions: Plasmodium falciparum; 0h preincubation/add-in
Description: as §1

[5] = system: P. berghei strain CTRPpGFP early mosquito stage (ookinete) development; assay: P. berghei ookinete development assay (Pb ODA); format: cell-based, Plasmodium berghei; conditions: Plasmodium berghei; 24h incubation
Description: All mouse procedures were performed in accordance with the UK Animals (Scientific Procedures) Act (PPL 70/7185) and approved by the Imperial College Animal Welfare and Ethical Review Body (AWERB). The ability of test compounds to inhibit P. berghei early mosquito stage development was tested in the Ookinete Development Assay[37] with a few exceptions. Anaesthetised 6- to 8-week-old female Tucks Ordinary (TO) mice infected with P. berghei strain CTRPpGFP[38] were rapidly exsanguinated by cardiac puncture and 500 µl of blood diluted in 25 ml of ookinete medium supplemented with 20% foetal bovine serum. Immediately the blood/medium mixture was dispensed by multichannel pipette into 384 well plates containing pre-plated test compounds. 10 µM cycloheximide and DMSO were used as the positive and negative controls, respectively. Plates were stored in the dark in a humidified incubator at 18 °C for 24 h. Ookinete production was imaged by fluorescence microscopy of GFP expression under the ookinete-specific CTRP promoter using a Nikon Ti-E widefield microscope and ×10 objective. Ookinete production was quantified using ICY and percentage inhibition calculated as above with reference to positive and negative controls.

[6] = system: P. falciparum 3D7 asexual blood stages; assay: Whole-cell time extended asexual growth assay (pLDH); format: cell-based; conditions: Plasmodium falciparum; for inhibition at 2 µM: primary screen, read-out: %Inh Asex stages @2uM
Description: Asexual activity was assayed via Plasmodium lactate dehydrogenase activity (pLDH), a surrogate of asexual parasite growth. […] 2 µM artesunate and DMSO were used as the positive and negative controls, respectively. […] After plate mixing, NBT reduction was measured by absorbance at 650 nm using Envision (Perkin Elmer).

[7] = 72h incubation, read-out: Pf Asexual IC50
[8] = dose response retest, 72 h, read-out: IC50 (µM) Asex stages

## CCn1ncc(Br)c1CN(C)S(=O)(=O)c1ccc(C)cc1 [DDD01259521]
HepG2 human cells
  %Inh HepG2 @10uM: 8.37%
[1]
  IC50: 8.64 µM
[2]
  IC50: > 10 µM
[3]
  IC50: > 12.5 µM
[4]
  IC50: > 10 µM
[5]
  IC50: > 12.5 µM
[6]; [7]
  IC50: 1.06 µM
[6]; [8]
  IC50: 1.02 µM
[6]; 72 h
  inhibition at 2 µM: 56.1%

## c1cnnc(N2CCCC2CNc2ncnc3sccc23)c1 (stereo not drawn) [DDD01299704]
HepG2 human cells
  %Inh HepG2 @10uM: -7.82%
[1]
  IC50: 16.4 µM
[2]
  IC50: > 10 µM
[3]
  IC50: > 12.5 µM
[4]
  IC50: > 10 µM
[5]
  IC50: > 12.5 µM
[6]; [7]
  IC50: 0.44 µM
[6]; [8]
  IC50: 0.532 µM
[6]; 72 h
  inhibition at 2 µM: 66.7%
